Reference: patent US10125118B2, “Heteroaryl compounds and their use as therapeutic drugs” (Dong-A Socio Holdings Co., Ltd., priority 2015, dated 2018)

These compounds were tested against human c-MER catalytic domain (Homo sapiens (Human), UniProt Q12866) (assay: LanthaScreen TR-FRET kinase assay, c-MER). Conditions: read-out: Mer TK inhibition (IC50); Biochemical IC50, TR-FRET, 10 uM ATP.
Sequence of human c-MER catalytic domain (Q12866 587-858): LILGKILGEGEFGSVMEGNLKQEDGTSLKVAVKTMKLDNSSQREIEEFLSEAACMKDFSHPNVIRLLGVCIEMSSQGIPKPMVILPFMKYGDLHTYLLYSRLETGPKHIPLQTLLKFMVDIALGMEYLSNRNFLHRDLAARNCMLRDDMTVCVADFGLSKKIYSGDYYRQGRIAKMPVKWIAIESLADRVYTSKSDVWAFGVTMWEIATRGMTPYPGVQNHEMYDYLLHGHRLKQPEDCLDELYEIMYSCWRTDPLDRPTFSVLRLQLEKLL
In the case of `CN1CCN(Cc2ccc(-c3ccc(CO[C@H]4CCCC[C@@H]4NC(=O)c4cc(-c5cnn(C)c5)cnc4N)cc3)cc2)CC1` [Example 166, 2-amino-5-(1-methyl-1H-pyrazol-4-yl)-N-((1S,2S)-2-((4′-((4-methylpiperazin-1-yl)methyl)-[1,1′-biphenyl]-4-yl)methoxy)cyclohexyl)nicotinamide], the IC50 is reported as over 1000 nM. Work on `CN1CCN(C(C)(C)c2ccc(-c3ccc(CO[C@H]4CCC[C@@H]4NC(=O)c4cccnc4N)cc3)cc2)CC1` [Example 167, 2-amino-N-((1S,2S)-2-((4′-(2-(4-methylpiperazin-1-yl)propan-2-yl)-[1,1′-biphenyl]-4-yl)methoxy)cyclopentyl)nicotinamide] yielded an IC50 of under 10 nM. `Cn1cc(-c2cnc(N)c(C(=O)N[C@H]3CCC[C@@H]3OCc3cccc(-c4cccc(O)c4)c3)c2)cn1` [Example 169, 2-amino-N-((1S,2S)-2-((3′-hydroxy-[1,1′-biphenyl]-3-yl)-methoxy)cyclopentyl)-5-(1-methyl-1H-pyrazol-4-yl)nicotinamide] showed an IC50 of over 1000 nM. `Cn1cc(-c2cnc(N)c(C(=O)N[C@H]3CCC[C@@H]3OCc3cccc(-c4cccc(N)c4)c3)c2)cn1` [Example 170, 2-amino-N-((1S,2S)-2-((3′-amino-[1,1′-biphenyl]-3-yl)methoxy)-cyclopentyl)-5-(1-methyl-1H-pyrazol-4-yl)nicotinamide] gave an IC50 of over 1000 nM. Compound `Cn1cc(-c2cnc(N)c(C(=O)N[C@H]3CCC[C@@H]3OCc3cccc(-c4cccc(CO)c4)c3)c2)cn1` [Example 171, 2-amino-N-((1S,2S)-2-((3′-(hydroxymethyl)-[1,1′-biphenyl]-3-yl)-methoxy)cyclopentyl)-5-(1-methyl-1H-pyrazol-4-yl)nicotinamide] has an IC50 of over 1000 nM. In the case of `CN1CCN(Cc2ccc(-c3ccc(CO[C@H]4CCC[C@@H]4NC(=O)c4cc(-c5cnn(C)c5)cnc4N)cc3)nc2)CC1` [Example 204, 2-amino-5-(1-methyl-1H-pyrazol-4-yl)-N-((1S,2S)-2-((4-(5-((4-methylpiperazin-1-yl)methyl)pyridin-2-yl)benzyl)oxy)cyclopentyl)nicotinamide], the IC50 is reported as under 10 nM. Work on `CN1CCN(Cc2ccc(-c3ccc(CO[C@H]4CCC[C@@H]4NC(=O)c4cccnc4N)cc3)cc2C(F)(F)F)CC1` [Example 207, 2-amino-N-((1S,2S)-2-((4′-((4-methylpiperazin-1-yl)methyl)-3′-(trifluoromethyl)-[1,1′-biphenyl]-4-yl)methoxy)cyclopentyl)nicotinamide] yielded an IC50 of under 10 nM. `CC(c1ccc(-c2ccc(CO[C@H]3CCC[C@@H]3NC(=O)c3cc(Cl)cnc3N)cc2)cc1)N1CCN(C)CC1` (stereo partly drawn) [Example 231] gave an IC50 of under 10 nM. `CN(C)CCCc1ccc(CO[C@H]2CCC[C@@H]2NC(=O)c2cc(-c3cnn(C)c3)cnc2N)cc1` [Example 244, 2-amino-N-((1S,2S)-2-((4-(3-(dimethylamino)propyl)benzyl)oxy)-cyclopentyl)-5-(1-methyl-1H-pyrazol-4-yl)nicotinamide] was tested, and the IC50 was over 1000 nM. With `CN(C)CCOc1ccc(-c2ccc(CO[C@H]3CCC[C@@H]3NC(=O)c3cc(-c4cnn(C)c4)cnc3N)cc2)cc1` [Example 245, 2-amino-N-((1S,2S)-2-((4′-(2-(dimethylamino)ethoxy)-[1,1′-biphenyl]-4-yl)methoxy)cyclopentyl)-5-(1-methyl-M-pyrazol-4-yl)nicotinamide] the IC50 was under 10 nM. For `Cn1cc(-c2cnc(N)c(C(=O)N[C@H]3CCC[C@@H]3OCc3ccccc3)c2)c(CNCCO)n1` [Example 262, 2-amino-N-((1S,2S)-2-(benzyloxy)cyclopentyl)-5-(3-(((2-hydroxyethyl)amino)methyl)-1-methyl-1H-pyrazol-4-yl)nicotinamide], the IC50 was over 1000 nM. Compound `Cn1cc(-c2cnc(N)c(C(=O)N[C@H]3CCC[C@@H]3OCc3ccccc3)c2)c(CN2CCCC(O)C2)n1` (stereo partly drawn) [Example 263, 2-amino-N-((1S,2S)-2-(benzyloxy)cyclopentyl)-5-(3-((3-hydroxypiperidin-1-yl)methyl)-1-methyl-1H-pyrazol-4-yl)nicotinamide] has an IC50 of over 1000 nM.
